Experimental data as given in patent US20160378912A1, “STRUCTURE-BASED MODELING AND TARGET-SELECTIVITY PREDICTION” (EPIGENETX, LLC, priority 2013, published 2016).
Like-named read-outs stand apart in the source and are kept apart here.

Experiments:
[1] = molecular target: T1, HDAC8 (Homo sapiens, UniProt Q9BY41); details: cited from earlier work; for pIC50: training set composition
T1 sequence (Q9BY41 1-377): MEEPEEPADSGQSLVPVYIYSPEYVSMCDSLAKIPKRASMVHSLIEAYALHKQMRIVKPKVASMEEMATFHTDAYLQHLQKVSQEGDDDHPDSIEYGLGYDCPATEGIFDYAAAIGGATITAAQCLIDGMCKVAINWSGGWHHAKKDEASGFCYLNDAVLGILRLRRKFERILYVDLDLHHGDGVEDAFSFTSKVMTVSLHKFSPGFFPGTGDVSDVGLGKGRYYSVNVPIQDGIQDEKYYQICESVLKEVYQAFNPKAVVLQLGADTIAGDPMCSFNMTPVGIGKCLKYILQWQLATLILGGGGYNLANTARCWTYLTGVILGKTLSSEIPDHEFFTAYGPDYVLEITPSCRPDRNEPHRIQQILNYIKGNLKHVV

[2] = molecular target: T2, HDAC10 (Homo sapiens, UniProt Q969S8); details: cited from earlier work; for Exp. pIC50: MTS inhibitors; for pIC50exp: experimental value of modeled complex; for pIC50: training set composition
T2 sequence (Q969S8 1-669): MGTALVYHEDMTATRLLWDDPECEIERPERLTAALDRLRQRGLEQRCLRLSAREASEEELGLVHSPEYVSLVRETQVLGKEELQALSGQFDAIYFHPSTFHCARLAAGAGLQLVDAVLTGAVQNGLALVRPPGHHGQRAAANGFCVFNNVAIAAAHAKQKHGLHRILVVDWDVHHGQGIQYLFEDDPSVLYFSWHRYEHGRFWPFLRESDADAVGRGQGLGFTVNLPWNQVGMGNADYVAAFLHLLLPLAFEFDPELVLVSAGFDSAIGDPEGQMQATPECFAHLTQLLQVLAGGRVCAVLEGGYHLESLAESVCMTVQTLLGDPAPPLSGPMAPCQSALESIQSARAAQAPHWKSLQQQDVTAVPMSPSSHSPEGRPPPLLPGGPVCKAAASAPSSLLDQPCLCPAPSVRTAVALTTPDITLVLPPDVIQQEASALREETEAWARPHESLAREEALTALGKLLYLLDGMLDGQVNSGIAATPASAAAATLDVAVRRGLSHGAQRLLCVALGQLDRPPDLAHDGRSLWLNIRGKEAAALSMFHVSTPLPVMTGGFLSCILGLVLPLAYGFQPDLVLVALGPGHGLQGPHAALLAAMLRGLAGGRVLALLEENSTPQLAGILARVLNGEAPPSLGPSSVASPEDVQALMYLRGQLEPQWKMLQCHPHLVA

[3] = molecular target: T3, HDAC6 (Homo sapiens, UniProt Q9UBN7); details: cited from earlier work; for IC50: HDAC6, MTS, read-out: reported HDACs inhibitory activities IC50; for Exp. pIC50: MTS inhibitors
T3 sequence (Q9UBN7 1-1215): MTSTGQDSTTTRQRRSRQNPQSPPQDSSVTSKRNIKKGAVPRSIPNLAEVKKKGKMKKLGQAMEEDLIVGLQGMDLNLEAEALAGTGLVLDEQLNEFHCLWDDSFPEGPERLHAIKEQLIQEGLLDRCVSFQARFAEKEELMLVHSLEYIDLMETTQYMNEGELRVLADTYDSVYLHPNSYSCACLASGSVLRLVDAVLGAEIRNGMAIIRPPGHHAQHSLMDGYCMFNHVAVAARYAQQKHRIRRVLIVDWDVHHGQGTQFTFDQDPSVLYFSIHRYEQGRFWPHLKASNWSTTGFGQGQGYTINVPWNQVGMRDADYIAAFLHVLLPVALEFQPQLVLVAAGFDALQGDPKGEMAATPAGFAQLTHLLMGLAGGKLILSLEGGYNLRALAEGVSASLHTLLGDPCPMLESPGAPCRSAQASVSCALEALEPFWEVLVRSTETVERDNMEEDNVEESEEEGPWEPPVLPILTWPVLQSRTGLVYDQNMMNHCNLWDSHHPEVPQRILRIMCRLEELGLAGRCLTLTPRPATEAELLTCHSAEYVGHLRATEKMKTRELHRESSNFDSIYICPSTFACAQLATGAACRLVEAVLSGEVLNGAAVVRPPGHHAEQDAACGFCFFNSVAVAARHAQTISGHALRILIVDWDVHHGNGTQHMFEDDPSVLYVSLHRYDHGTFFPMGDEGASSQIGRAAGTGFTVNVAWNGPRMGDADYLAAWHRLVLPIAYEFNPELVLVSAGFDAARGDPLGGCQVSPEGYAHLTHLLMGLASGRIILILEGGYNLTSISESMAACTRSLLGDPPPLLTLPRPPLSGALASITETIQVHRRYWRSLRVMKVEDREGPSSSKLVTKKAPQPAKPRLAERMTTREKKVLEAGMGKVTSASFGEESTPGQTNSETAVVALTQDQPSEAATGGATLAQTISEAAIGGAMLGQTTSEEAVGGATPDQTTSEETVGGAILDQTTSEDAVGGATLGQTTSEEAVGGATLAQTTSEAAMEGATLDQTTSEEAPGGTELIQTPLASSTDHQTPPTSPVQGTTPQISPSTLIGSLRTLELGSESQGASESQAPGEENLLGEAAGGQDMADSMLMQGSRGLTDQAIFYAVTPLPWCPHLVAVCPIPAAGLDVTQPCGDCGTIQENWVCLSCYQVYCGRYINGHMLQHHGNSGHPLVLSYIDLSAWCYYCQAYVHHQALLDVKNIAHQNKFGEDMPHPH

[4] = molecular target: HDAC2 (Homo sapiens, UniProt Q92769); details: cited from earlier work; for Exp. pIC50: MTS inhibitors
[5] = molecular target: T4, HDAH (Alcaligenes sp., UniProt Q70I53); details: CTS; cited from earlier work
T4 sequence (Q70I53 1-369): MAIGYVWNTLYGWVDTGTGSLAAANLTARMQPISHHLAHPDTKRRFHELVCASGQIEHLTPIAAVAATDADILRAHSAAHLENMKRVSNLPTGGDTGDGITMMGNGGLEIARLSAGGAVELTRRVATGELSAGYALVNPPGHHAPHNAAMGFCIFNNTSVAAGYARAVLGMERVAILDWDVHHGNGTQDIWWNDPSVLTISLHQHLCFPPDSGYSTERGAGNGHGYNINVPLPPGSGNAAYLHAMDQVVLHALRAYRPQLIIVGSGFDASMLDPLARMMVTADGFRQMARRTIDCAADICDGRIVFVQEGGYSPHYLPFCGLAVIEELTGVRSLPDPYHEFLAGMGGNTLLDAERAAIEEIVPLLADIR

[6] = tested on: HDAC isoforms; test: HDAC inhibition profiled over several HDAC isoforms (experimental); type: biochemical, human; details: range of pIC50 over the profiled HDAC isoforms
[7] = molecular target: HDAC4 (Homo sapiens, UniProt P56524); details: cited from earlier work; for pIC50: training set composition; for IC50: training set, read-out: HDACs inhibitory activities IC50
[8] = molecular target: HDAC1 (Homo sapiens, UniProt Q13547); details: cited from earlier work; for Exp. pIC50: MTS inhibitors
[9] = molecular target: HDAC3 (Homo sapiens, UniProt O15379); details: cited from earlier work
[10] = molecular target: T5, HDAC7 (Homo sapiens, UniProt Q8WUI4); details: cited from earlier work
T5 sequence (Q8WUI4 1-952): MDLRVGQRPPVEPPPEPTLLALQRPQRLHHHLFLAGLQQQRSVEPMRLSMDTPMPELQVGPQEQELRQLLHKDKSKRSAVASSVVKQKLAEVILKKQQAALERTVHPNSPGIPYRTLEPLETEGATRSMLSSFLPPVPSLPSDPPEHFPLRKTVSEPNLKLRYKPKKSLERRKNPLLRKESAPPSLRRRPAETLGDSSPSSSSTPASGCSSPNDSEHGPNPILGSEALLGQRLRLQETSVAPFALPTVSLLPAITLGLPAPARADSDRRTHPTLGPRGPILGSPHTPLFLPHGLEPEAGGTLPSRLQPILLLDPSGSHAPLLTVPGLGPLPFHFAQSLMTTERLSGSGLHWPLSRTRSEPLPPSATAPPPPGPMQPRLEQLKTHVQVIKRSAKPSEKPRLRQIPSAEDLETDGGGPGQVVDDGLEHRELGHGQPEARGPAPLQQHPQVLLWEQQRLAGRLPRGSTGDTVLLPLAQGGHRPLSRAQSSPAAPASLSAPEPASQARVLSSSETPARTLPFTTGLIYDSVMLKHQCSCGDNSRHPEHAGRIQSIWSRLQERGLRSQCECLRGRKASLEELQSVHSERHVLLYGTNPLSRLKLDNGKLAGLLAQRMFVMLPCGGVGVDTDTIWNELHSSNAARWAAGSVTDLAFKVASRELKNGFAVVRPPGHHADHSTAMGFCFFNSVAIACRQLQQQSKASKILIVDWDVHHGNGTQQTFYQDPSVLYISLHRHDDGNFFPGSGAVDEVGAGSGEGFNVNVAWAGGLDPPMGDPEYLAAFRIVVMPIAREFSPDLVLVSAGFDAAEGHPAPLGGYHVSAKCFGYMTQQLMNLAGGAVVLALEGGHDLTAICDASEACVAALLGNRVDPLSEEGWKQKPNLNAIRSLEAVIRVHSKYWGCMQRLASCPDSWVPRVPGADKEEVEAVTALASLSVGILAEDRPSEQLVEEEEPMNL

[11] = MTS, read-out: reported HDACs inhibitory activities IC50
[12] = HDAC6, listed with HDAC6-1 complexes
[13] = HDAC6, listed with HDAC6-2 complexes
[14] = co-crystallized ligand, read-out: IC50
[15] = training set, read-out: HDACs inhibitory activities IC50

Sequence of HDAC2 (Q92769 whole entry): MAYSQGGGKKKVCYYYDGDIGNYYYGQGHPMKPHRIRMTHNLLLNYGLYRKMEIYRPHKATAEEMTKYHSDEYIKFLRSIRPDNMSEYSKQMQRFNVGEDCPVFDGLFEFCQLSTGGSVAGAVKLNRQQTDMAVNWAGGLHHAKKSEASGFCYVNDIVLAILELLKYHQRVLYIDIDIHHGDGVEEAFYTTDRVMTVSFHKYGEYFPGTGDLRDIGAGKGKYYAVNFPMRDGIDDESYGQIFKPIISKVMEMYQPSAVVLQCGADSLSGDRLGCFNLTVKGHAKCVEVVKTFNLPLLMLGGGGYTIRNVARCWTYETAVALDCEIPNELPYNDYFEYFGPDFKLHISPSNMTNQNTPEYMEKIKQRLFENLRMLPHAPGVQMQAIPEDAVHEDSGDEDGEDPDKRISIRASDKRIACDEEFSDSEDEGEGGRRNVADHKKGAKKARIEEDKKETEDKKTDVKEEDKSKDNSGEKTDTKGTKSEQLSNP
Sequence of HDAC1 (Q13547 whole entry): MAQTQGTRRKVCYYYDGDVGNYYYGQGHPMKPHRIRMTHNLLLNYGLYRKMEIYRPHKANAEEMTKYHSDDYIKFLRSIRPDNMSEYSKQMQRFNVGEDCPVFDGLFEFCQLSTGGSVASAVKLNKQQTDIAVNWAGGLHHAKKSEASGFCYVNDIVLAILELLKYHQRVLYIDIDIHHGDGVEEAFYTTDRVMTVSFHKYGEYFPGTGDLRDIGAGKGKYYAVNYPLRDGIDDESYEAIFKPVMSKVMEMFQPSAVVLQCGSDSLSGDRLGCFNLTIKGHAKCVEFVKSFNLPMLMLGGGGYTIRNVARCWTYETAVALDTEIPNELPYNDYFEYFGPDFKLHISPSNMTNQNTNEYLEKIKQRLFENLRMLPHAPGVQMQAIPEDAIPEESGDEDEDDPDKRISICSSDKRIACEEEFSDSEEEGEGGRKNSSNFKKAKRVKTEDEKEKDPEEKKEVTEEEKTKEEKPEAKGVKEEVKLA
Sequence of HDAC4 (P56524 whole entry): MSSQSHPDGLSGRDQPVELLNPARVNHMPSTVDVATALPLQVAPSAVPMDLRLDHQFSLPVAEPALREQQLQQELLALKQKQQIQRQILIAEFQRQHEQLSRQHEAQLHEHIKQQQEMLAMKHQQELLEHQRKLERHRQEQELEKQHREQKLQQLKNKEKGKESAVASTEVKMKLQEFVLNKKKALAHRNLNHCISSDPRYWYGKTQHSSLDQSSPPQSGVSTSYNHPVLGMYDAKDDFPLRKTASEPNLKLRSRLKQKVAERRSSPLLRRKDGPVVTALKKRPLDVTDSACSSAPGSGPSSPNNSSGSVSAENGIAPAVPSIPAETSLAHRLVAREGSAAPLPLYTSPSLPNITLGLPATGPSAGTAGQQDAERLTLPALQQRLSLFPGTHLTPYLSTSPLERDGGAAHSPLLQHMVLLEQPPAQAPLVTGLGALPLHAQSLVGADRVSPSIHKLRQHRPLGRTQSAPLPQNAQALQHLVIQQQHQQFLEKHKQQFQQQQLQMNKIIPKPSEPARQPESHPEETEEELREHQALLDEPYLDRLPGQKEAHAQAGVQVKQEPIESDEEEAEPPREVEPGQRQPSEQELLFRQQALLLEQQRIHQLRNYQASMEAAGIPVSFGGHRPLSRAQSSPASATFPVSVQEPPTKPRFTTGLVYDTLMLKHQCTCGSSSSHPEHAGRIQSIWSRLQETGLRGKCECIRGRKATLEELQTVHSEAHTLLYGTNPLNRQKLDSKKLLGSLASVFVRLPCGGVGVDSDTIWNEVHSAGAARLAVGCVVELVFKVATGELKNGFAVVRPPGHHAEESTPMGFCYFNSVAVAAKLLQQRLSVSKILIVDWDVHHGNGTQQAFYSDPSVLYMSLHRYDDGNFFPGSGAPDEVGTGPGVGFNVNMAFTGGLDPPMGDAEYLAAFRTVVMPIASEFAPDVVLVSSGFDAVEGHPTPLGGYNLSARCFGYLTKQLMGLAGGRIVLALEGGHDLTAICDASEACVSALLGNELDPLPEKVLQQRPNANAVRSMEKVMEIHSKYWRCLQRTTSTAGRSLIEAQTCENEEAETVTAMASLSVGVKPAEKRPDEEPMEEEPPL
Sequence of HDAC3 (O15379 whole entry): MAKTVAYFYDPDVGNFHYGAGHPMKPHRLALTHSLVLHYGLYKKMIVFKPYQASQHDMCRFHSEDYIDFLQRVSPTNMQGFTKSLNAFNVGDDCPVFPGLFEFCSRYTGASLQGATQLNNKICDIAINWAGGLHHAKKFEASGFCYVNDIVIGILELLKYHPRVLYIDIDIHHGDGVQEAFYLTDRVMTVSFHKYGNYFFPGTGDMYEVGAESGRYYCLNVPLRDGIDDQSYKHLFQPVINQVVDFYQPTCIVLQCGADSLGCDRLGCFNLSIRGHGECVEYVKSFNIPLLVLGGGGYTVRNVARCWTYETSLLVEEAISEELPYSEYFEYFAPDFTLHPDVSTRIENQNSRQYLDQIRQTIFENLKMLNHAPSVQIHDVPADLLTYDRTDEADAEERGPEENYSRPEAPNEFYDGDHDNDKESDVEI
Sequence of HDAC3 (Q9Y618 395-489 partner limits assumed): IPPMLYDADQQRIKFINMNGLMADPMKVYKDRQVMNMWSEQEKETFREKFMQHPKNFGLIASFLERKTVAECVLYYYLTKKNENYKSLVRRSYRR

N[C@H](Cc1ccc(Cl)cc1Cl)C(=O)N1CCN(C(=O)c2ccc(F)cc2F)CC1 [0DI]
IC50 ([1]; CTS, read-out: IC50): 0.2 µM
Experimental pIC50 ([1]; CTS): 6.70

CC(C)(C)OC(=O)Nc1cccc(-c2csc(NC(=O)CCCCCCC(=O)NO)n2)c1 [CMC-25b]
Exp. pIC50 [2]: 8.70
IC50 [2, 11]: 0.002 µM
IC50 [3]: 0.0002 µM
Exp. pIC50 [3, 12]: 9.70
Exp. pIC50 [3, 13]: 9.70
Exp. pIC50 [4]: 7.13

4-dimethylamino-n-(6- hydroxycarbamoyethyl) benzamide-n-hydroxy-7-(4- dimethylaminobenzoyl) aminoheptanamide [MS-344]
IC50 [1, 14]: 0.249 µM
pIC50 [1]: 6.60

O=C(CCCCCCC(=O)C(F)(F)F)Nc1ccccc1 [CF3, 9,9,9-trifluoro-8-oxo-n-phenylnonanamide]
Experimental pIC50 [5]: 4.95
IC50 [5]: 11.2 µM

SCRIPTAID
Bioactivity range (ΔpIC50) DpIC50 [6]: 2.76

Oxamflatin
pIC50 [7]: 7.52
IC50 [7]: 0.03 µM
pIC50exp [2]: 7.301
pIC50 [2]: 7.30
IC50 [2, 15]: 0.05 µM
Bioactivity range (ΔpIC50) DpIC50 [6]: 2.34

CCCC(CCC)C(=O)O [VALP, valproic acid]
pIC50exp ([8]; experimental value of modeled complex): 3
pIC50 ([8]; training set composition): 3.00
IC50 [8, 15]: 1000 µM
pIC50exp [2]: 3
pIC50 [2]: 3.00
IC50 [2, 15]: 1000 µM
Bioactivity range (ΔpIC50) DpIC50 [6]: 0.95

CC(C)(C)OC(=O)Nc1ccccc1-c1ccc(NC(=O)CCCCCCC(=O)NO)cc1 [CMC-7f]
Exp. pIC50 ([9]; MTS inhibitors): 7.75
IC50 [9, 11]: 0.018 µM
Exp. pIC50 ([1]; MTS inhibitors): 5.76
IC50 [1, 11]: 1.72 µM
Exp. pIC50 [8]: 7.24
IC50 [8, 11]: 0.057 µM
Exp. pIC50 [2]: 7.08
IC50 [2, 11]: 0.083 µM
IC50 [3]: 0.011 µM
Exp. pIC50 [3, 12]: 7.96
Exp. pIC50 [3, 13]: 7.96
Exp. pIC50 [4]: 7.13
IC50 [4, 11]: 0.074 µM

Cn1cc(C(=O)Cc2ccccc2)cc1/C=C/C(=O)NO [APHA8, (2E)-N-hydroxy-3-[1-methyl-4-(phenylacetyl)-1H-pyrrol-2-yl]prop-2-enamide]
pIC50 [7]: 5.51
IC50 [7]: 3.1 µM
pIC50 ([10]; training set composition): 5.51
IC50 [10, 15]: 3.1 µM
Bioactivity range (ΔpIC50) DpIC50 [6]: 1.87

MS-275
Bioactivity range (ΔpIC50) DpIC50 [6]: 2.63

CNC(=O)/C(CCCCCCC(=O)Nc1cccc(-c2ccc(Cl)nc2)c1)=N\O [JMC-23]
IC50 [1, 11]: 100 µM

C[C@@H](NC(=O)c1ccc(C(=O)C(F)(F)F)s1)c1ccccc1 [MCL08-3d]
Exp. pIC50 [8]: 6.50

CN(c1ccc(C(=O)NO)cc1)S(=O)(=O)c1ccc(-c2ccccn2)s1 [NHB, N-hydroxy-4-{methyl[(5-pyridin-2-ylthiophen-2-yl)sulfonyl]amino}benzamide]
IC50 [1, 14]: 0.175 µM
pIC50 [1]: 6.76

O=C(CCC1CCCC1)NO [3YP, 3-cyclopentyl-n-hydroxypropanamide]
Experimental pIC50 [5]: 6.54
IC50 [5]: 0.29 µM
